Common to all, as to format: biochemical
Assay [1] deals with T1, Myeloperoxidase (MPO) (Homo sapiens, UniProt P05164). The experiment in a line: MPO peroxidation assay (o-dianisidine/H2O2), dose-response.
Assay [2] deals with T1, Myeloperoxidase (MPO). Nature of the assay: MPO peroxidation assay (o-dianisidine/H2O2), single concentration […].
The target in assay [3] is T1, Myeloperoxidase (MPO). The experiment in a line: MPO peroxidation assay ([…] at […]) and taurine-chloramine chlorination assay ([…] at […]).

T1 sequence (P05164 165-273): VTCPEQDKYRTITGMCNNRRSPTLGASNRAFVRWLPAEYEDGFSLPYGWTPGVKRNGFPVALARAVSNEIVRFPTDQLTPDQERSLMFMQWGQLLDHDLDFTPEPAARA
T1 sequence (P05164 279-745): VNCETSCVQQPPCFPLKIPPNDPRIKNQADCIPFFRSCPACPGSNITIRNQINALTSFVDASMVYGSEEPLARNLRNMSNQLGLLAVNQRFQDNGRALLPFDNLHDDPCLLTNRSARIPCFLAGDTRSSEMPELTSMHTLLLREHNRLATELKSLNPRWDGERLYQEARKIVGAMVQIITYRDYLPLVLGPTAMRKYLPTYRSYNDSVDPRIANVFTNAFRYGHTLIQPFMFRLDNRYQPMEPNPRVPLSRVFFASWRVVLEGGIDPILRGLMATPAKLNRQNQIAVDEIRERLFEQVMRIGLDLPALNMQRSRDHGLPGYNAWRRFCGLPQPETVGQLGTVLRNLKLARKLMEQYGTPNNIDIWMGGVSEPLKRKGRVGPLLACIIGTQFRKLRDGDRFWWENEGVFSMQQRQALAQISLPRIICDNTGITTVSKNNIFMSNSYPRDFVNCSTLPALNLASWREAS

For orientation: IC50 means the concentration that inhibits the measured activity by half. Low readings indicate greater potency in that assay, high ones weaker potency in that assay. For `N/C(=C/c1ccccc1O)C(=O)O` [2a, (E)-(2-hydroxy)-α-aminocinnamic acid], the IC50 at Myeloperoxidase (MPO) [1] is 45 ± 4 µM.

For orientation: inhibition means the drop in the measured response relative to a control, in per cent. Lower therefore signals little suppression. `N/C(=C/c1cc(Br)ccc1O)C(=O)O` [2b, (E)-(5-Bromo-2-hydroxy)-α-aminocinnamic acid] came in with an inhibition at 100 µM against Myeloperoxidase (MPO) [2] of 48.4 ± 4.1%.

In the case of `N/C(=C/c1cc(Cl)ccc1O)C(=O)O` [2c, (E)-(5-Chloro-2-hydroxy)-α-aminocinnamic acid], 100 µM produced 40.5 ± 4.4% inhibition at Myeloperoxidase (MPO) [3].

On Myeloperoxidase (MPO) [1], `CCOc1cccc(/C=C(/N)C(=O)O)c1O` [2e, (E)-(3-Ethoxy-2-hydroxy)-α-aminocinnamic acid] gave an IC50 of 43 ± 4 µM.

`N/C(=C/c1ccc(O)cc1O)C(=O)O` [2f, (E)-(2,4-dihydroxy)-α-aminocinnamic acid] showed an IC50 against Myeloperoxidase (MPO) [1] of 30 ± 5 µM.

On Myeloperoxidase (MPO) [1], `N/C(=C/c1cc(O)ccc1O)C(=O)O` [2h, (E)-(2,5-dihydroxy)-α-aminocinnamic acid] had an IC50 of 26 ± 2 µM.

Compound `Nc1ccc(O)c(C(=O)O)c1` [5-ASA, 5-aminosalicylic acid, reference compound] showed an IC50 at Myeloperoxidase (MPO) [1] of 39 ± 2 µM.

Turning to `COc1ccc2c(c1)c(CC(=O)O)c(C)n2C(=O)c1ccc(Cl)cc1` [indomethacin, reference compound], the IC50 at Myeloperoxidase (MPO) [1] amounted to 29 ± 2 µM.

The record behind these values is PMC8229396, “Myeloperoxidase Inhibitory and Antioxidant Activities of (E)-2-Hydroxy-α-aminocinnamic Acids Obtained through Microwave-Assisted Synthesis” (Pharmaceuticals, 2021).
